Assay results: patent US7524490B2, “Clusterin-mediated inhibition of apoptosis via stromal bone marrow cell delivery to a cardiac site” (Board of Regents of the University of Texas System, priority 2004, dated 2009)

Key:
KG-293 cells = assay: TNF-α-induced apoptosis in KG-293 cells with tetracycline-induced intracellular clusterin; type: cell-based, human
From the text: Transfection with clusterin cDNA. Initially a plasmid was constructed that contains a truncated form of clusterin cDNA with deletion of the sequence responsible for cross-membrane transport. Transfection of human embryonic 293 cell line with this plasmid leads to intracellular overexpression of a non-secreted form of clusterin. The clusterin gene is under control of a CMV promoter with tetracycline-sensitive elements. […] This plasmid will be used to deliver the truncated clusterin gene into stem cells. The cells will be selected using G418 as the plasmid contains a neomycin-resistant gene.
A plasmid pKS7 that contains a truncated clusterin cDNA with deletion of the transmembrane domain and a neomycin-resistant gene was constructed. The truncated clusterin gene was under regulation by a CMV promoter with tetracycline-responding elements. Stable transfection of the human embryonic kidney cell line T-293 with pKS7 generates a stable cell line (KG-293) with clusterin overexpressed. As shown by Western blot, under stimulation with tetracycline (1 μg/ml) for 24 hours, KG-293 cells but not their precursors, T-293 cells, produced an intracellular form of clusterin at much higher levels (FIG. 7A). […] KG-293 cells overexpressing the intracellular form of clusterin also underwent dramatic alterations in morphology and proliferation. […]

stem cells = assay: Clusterin pretreatment of stem cells in serum-free conditioned medium; type: cell-based, mouse; details: 20-30 μg/ml clusterin, 24 hours, preliminary data
Description: Stem cell culture and treatment with oxysterols and cytokines. Mouse stem cells were used in this in vitro study. Two groups of proapoptotic agents were used to induce apoptosis of stem cells: oxysterols and cytokines. In group 1, stem cells were treated with 7-ketocholesterol (7-KC) and 25-OH-cholesterol (25-OH—C), two oxysterols known to exist in abundantly in atherosclerotic lesions and to induce apoptosis in cardiovascular cells. Free cholesterol was used as controls. In group 2, stem cells were incubated with a combination of tumor necrosis factor (TNF)-α and interferon (IFN)-γ, two cytokines previously shown to induce apoptosis of stem cells. In addition, to determine whether the Fas death-signaling pathway is involved in apoptosis of stem cells, stem cells were treated with recombinant Fas ligand in the presence of IFN-γ.
Clusterin treatment. In order to determine whether clusterin prevents apoptosis of stem cells, stem cells were pretreated with clusterin purified from serum or synthesized by use of recombinant technology. Stem cells were cultured in a serum-free, conditioned medium supplemented with 20-30 μg/ml clusterin for 24 hours. The preliminary data indicated no apoptosis under the culture condition with clusterin. […] Cells were analyzed for apoptosis using the following methods after treatment. […]

[1] = Dot blotting of clusterin binding to filter-coated lipids; parameters: species or system mouse; details: 10 μg/well serum proteins from TG and WT mice, 30 min, room temperature; anti-clusterin detection
Description: As a component of HDL, clusterin helps transport cholesterol crossing the cellular membrane. In atherosclerotic lesions, cholesterol-derived oxysterols accumulate and exert apoptotic effects on vascular cells. Usually, the cytotoxicity of oxysterols including 7-ketocholesterol is much greater than that of free cholesterol. […] Free cholesterol and 7-ketocholesterol dissolved in ethanol were loaded to a filter in a 96-well dot blotting device. 10 μg/well proteins from three TG and WT serum samples were incubated in the wells for 30 min at room temperate. After washing with PBS, the filter was incubated with anti-clusterin antibody (1:200), and then anti-goat IgG conjugated with peroxidase. The dot blotting was developed using an ECL kit. Furthermore, an increased binding activity to the oxysterol in the serum from clusterin transgenic mice, compared to these in wild type mouse serum (FIG. 10), was detected. Thus, clusterin appears to have a higher affinity to some oxidized cholesterol derivatives.

[2] = system: murine cardiac stem cells; assay: Apoptosis of cardiac stem cells induced by serum starvation, with or without clusterin; type: cell-based, mouse; details: clusterin-containing DMEM medium, many cells died without clusterin
Description: Treatment of stem cells in culture. An in vitro system was first employed to examine the protective effects of clusterin on stem cells. Stem cells were treated with clusterin at different concentrations in the cultures with or without proinflammatory cytokines or T lymphocytes pre-activated by mitogens. After 2-4 days of stimulation, cell survival and apoptosis were examined using a combination of techniques including flow cytometry, fluorescent microscopy, and radioactive isotope labeling, as described below. Control experiments were set up using other types of proteins, such as bovine albumin.
(§1) Detection of apoptotic cells. Determination of apoptosis needs a combination of techniques in morphology and biochemistry. Apoptosis was detected using the following six techniques: 1) Light microscopy; 2) Fluorescent confocal scanning or non-confocal microscopy, 3). […] The signal of TdT-mediated dUTP nick end labeling (TUNEL) was detected by an anti-digoxigenin antibody conjugated with peroxidase, a reporter enzyme which catalytically generates a brown color product from the chromogenic substrate diaminobenzidine. […] DNA was precipitated in ethanol, and analyzed for fragmentation by 2% agarose gel electrophoresis with ethidium bromide. […] In this study, cell proliferation and apoptosis were analyzed by flow cytometry. […]

[3] = system: aldehyde dehydrogenase-1 (ALDH-1); assay: Induction of aldehyde dehydrogenase expression in smooth muscle cells (immunoblot); type: cell-based, murine; details: recombinant human clusterin 0, 5, 25, 50 μg/ml; concentration-dependent
Description: FIG. 13 is an immunoblot showing induction of aldehyde dehydrogenase-1 (ALDH-1) in murine vascular smooth muscle cells by treatment with recombinant human clusterin (apoJ) at different concentrations (lane 1, 0 μg/ml; lane 2, 5 μg/ml; lane 3, 25 μg/ml; lane 4, 50 μg/ml).
Aldehyde dehydrogenase expression and vitamin A metabolism were investigated to determine whether clusterin exerts its protective effect through upregulation of genes involved in cellular detoxification. Aldehyde dehydrogenases (ALDHs) are a group of intracellular enzymes that mediate NAD-coupled oxidation of aldehydes to carboxylic acids. ALDH is probably most widely known for its role in clearance of acetaldehyde from beverage alcohol by conversion to acetic acid. This enzymes is also involved in retinol metabolism and mediates vitamin A function. Members of the ALDH family are diversed; some have broad substrate specificities (ALDH1 and ALDH2) and other ALDHs are tailored to specific reactions of intermediary metabolism (e.g., methyl malonic semialdehyde dehydrogenase in branched-chain amino acid metabolism). ALDH1 is primarily found in the liver and in adult stem cells including hematopoietic stem cells. […]

[4] = system: vascular smooth muscle cells; assay: Oxysterol-induced internucleosomal DNA fragmentation and apoptosis in vascular smooth muscle cells; type: cell-based
From the text: FIG. 11 is an ethedium bromide-stained agarose gel loaded with DNA samples extracted from clusterin-transfected or non-transfected vascular smooth muscle cells.
as §1, with “microscopy, 3). In situ labeling of DNA 3′ ends (TUNEL technique), 4) Electron microscopy, 5) DNA agarose gel electrophoresis, and 6) Flow cytometry. These techniques are describe more particularly as follows: 1) Light microscopy was applied routinely to analyze morphological changes of vascular cells. 2) Fluorescent confocal scanning or non-confocal microscopy was used to characterize cytoskeletal and nuclear alterations after immunofluorescent staining. DAPI or Hoechst dye was used for nuclear morphology under UV excitation.” for “microscopy,”

For “clusterin: sulfated, heterodimeric glycoprotein containing two 40 kDa chains joined by a five disulfide bond motif; native or recombinant”, which “effect on the pro-apoptotic effect of TNF-α” value (KG-293 cells; KG-293 cells with intracellular overexpression of truncated clusterin (pKS7, tetracycline 1 μg/ml)) is on record?
The value was “significantly attenuated”.

And the “apoptosis of stem cells under culture condition with clusterin” value (stem cells)?
The value was “no apoptosis”.

And the “binding to 7-ketocholesterol versus free cholesterol (dot blot intensity)” value [1]?
The value was “much higher intensities than free cholesterol”.

What about the “apoptosis of cardiac stem cells (morphology, acridine orange/ethidium bromide staining)” value [2] of the same compound?
Its value is “no sign of apoptosis”.

What about the “expression of ALDH in smooth muscle cells” value [3] of the same compound?
The value was “significantly induced expression of ALDH”.

And the “effect on oxysterol-induced DNA fragmentation and apoptosis in vascular cells” value ([4]; overexpression of clusterin by cDNA transfection)?
Its value is “markedly reduces the DNA fragmentation and apoptosis”.

Which “induction of apoptosis of vascular smooth muscle cells (internucleosomal DNA fragmentation)” value ([4]; exposure to oxysterol) does the source give for `CC(C)CCC[C@@H](C)[C@H]1CC[C@H]2[C@@H]3C(=O)C=C4C[C@@H](O)CC[C@]4(C)[C@H]3CC[C@]12C` [7-ketocholesterol, reference compound] here?
Its value is “can trigger apoptosis”.

Which “induction of apoptosis in control KG-293 cells” value (KG-293 cells; TNF-α 10 ng/ml for 24 and 48 hours, cells not exposed to tetracycline) does the source give for TNF-α [reference compound] here?
Its value is “markedly induced apoptosis”.
